The values below come from patent US20050113367A1, “Pharmaceutical composition” (SANKYO COMPANY, LIMITED, priority 2000, published 2005).

The structures appear in SMILES notation.

This assay has as its system spontaneously hypertensive rats (SHRs). Briefly: Hypotensive effects elicited by co-administration of CS-866 and hydrochlorothiazide (telemetry blood pressure in SHRs). The class given is in vivo, rat. Particulars: male SHRs, in mmHg (unit assumed). An excerpt: Hypotensive Effects Elicited by Co-Administration of CS-866 and Hydrochlorothiazide
Twenty-eight male spontaneously hypertensive rats aged 20 weeks (SHRs, SPF grade, purchased from Hoshino Laboratory Animals) were used. A transmitter of a telemeter (TA11PA-C40, DATA SCIENCES Inc.) was implanted in each SHR for recording blood pressure. After recovery from the surgical operations, blood pressure was monitored in the rats from the age of 24 weeks. The rats were orally given 0.5% carboxymethylceflulose solution (CMC, 2 ml/kg) for 7 successive days (once daily) by gavage. They were divided into 4 groups (7 SHRs per group) so as to give equally averaged blood pressure levels in the groups based on the blood pressure recorded on the 5th and 6th days after the CMC solution was initiated. The rats were orally treated with 0.5% CMC solution (2 ml/kg, control group) or test substance suspended in 0.5% CMC solution (2 ml/kg) for 14 successive days (once daily). Blood pressure was monitored 1 day prior to the drug administration and on the 7th and 14th days after the drug was initiated. The group composition, test substances, doses and blood pressure (the 24 hour mean blood pressure A standard error on the respective monitoring days) are summarized in Tables 1 and 2.
The test substances were hydrochlorothiazide (HCTZ), CS-866, and HCTZ and CS-866. HCTZ was prepared so as to be 10 mg/2 ml of final concentration with 0.5% CMC solution. CS-866 was suspended in 0.5% CMC solution so as to be at a final concentration of 1 mg/2 ml. CS-866 and HCTZ solution was prepared so as to be at a final concentration of [10 mg (HCTZ)+1 mg (CS-866)]/2 ml with 0.5% CMC solution.

The mark [1] stands for this setting: 7th day after administration, oral once daily, HCTZ 10 mg/kg, CS-866 1 mg/kg, or both.
The mark [2] stands for this setting: 14th day after administration, oral once daily, HCTZ 10 mg/kg, CS-866 1 mg/kg, or both.
Where [3] appears, read: 1 day before administration (baseline), oral, once daily, n=7 per group.

`CCCc1nc(C(C)(C)O)c(C(=O)OCc2oc(=O)oc2C)n1Cc1ccc(-c2ccccc2-c2nnn[nH]2)cc1` [CS-866, (5-methyl-2-oxo-1,3-dioxolen-4-yl)methyl 4-(1-hydroxy-1-methylethyl)-2-propyl-1-[2′-(1H-tetrazol-5-yl)biphenyl-4-ylmethyl]imidazol-5-carboxylate]: the “Blood pressure levels (24 hour mean blood pressure ± standard error)” value by setting is: under setting [1], 147 ± 4; under setting [2], 148 ± 4; under setting [3], 167 ± 6.

On to `NS(=O)(=O)c1cc2c(cc1Cl)NCNS2(=O)=O` [HCTZ, 6-chloro-3,4-dihydro-2H-1,2,4,-benzothiadiazin-7-sulfonamide 1,1-dioxide], for which the “Blood pressure levels (24 hour mean blood pressure ± standard error)” value came to 152 ± 6 under setting [1], 156 ± 6 under setting [2] and 165 ± 6 under setting [3].
